From patent publication US20250121084A1, “ANTI-CLAUDIN-6 CONJUGATES” (priority 2023, published 2025)
Starred links: 1 amine or outer side, 2 acyl side, 3 side chain; linkers in the order of their positions; H or OH if unused. Non-standard residues stand in square brackets, D forms with d. Residues, ends and D or L forms follow the SMILES beside them. *: point of attachment. Exatecan = CC[C@@]1(O)C(=O)OCc2c1cc1n(c2=O)Cc2c-1nc1cc(F)c(C)c3c1c2[C@@H](N*)CC3; Propanoyl(3-maleimido) = O=C1C=CC(=O)N1CCC(=O)*; PABC = O=C(OCc1ccc(N[*:1])cc1)[*:2]

Experiments:
[1] = RP-HPLC retention time correlated with hydrophobicity; type: physicochemical; conditions: high Rt = hydrophobic, low Rt = hydrophilic
Experimental: A correlation study was also carried out using Reverse-Phase HPLC (RP-HPLC). The two constructs were injected in RP-HPLC and retention times (Rt) correlated with hydrophobicity—i.e., high Rt was associated to hydrophobic constructs whereas low Rt to hydrophilic ones.

[2] = Aggregation during conjugation to a test antibody (% monomer by SEC); type: physicochemical
Experimental: 2 mg of monoclonal antibody GB01 at 8.87 mg/ml was pH adjusted with 5% 0.5 M Tris, 0.025 M EDTA, pH 8.5 and reduced with 2.3 mol. eq. TCEP and then conjugated with 6 mol. eq. drug linker. After buffer exchange into 30 mM Histidine, 175 mM Sucrose pH 6.0/PBS, the drug to antibody ratio (DAR) was by HIC/LC-MS and % Monomer by size exclusion chromatography (SEC). Percentage monomer values of 95% or greater are assessed as low aggregation.
Aggregation levels were assessed during the conjugation to a test antibody. Conjugation was performed as described above for ADC1.
During conjugation, we are ideally targeting a monomer content or percentage monomer of 95% or above. Low percentage monomer values usually translate to a higher degree of aggregation. One could therefore agree that percentage monomer values of 95% or higher mean very low levels of aggregation or none, whereas values below this threshold often translate to higher levels of aggregation.

topo I/DNA complex = biological target: T1, topo I/DNA complex (Homo sapiens, UniProt P11387); conditions: versus SN38 (the active metabolite of irinotecan); cited from earlier work
T1 sequence (P11387 1-765): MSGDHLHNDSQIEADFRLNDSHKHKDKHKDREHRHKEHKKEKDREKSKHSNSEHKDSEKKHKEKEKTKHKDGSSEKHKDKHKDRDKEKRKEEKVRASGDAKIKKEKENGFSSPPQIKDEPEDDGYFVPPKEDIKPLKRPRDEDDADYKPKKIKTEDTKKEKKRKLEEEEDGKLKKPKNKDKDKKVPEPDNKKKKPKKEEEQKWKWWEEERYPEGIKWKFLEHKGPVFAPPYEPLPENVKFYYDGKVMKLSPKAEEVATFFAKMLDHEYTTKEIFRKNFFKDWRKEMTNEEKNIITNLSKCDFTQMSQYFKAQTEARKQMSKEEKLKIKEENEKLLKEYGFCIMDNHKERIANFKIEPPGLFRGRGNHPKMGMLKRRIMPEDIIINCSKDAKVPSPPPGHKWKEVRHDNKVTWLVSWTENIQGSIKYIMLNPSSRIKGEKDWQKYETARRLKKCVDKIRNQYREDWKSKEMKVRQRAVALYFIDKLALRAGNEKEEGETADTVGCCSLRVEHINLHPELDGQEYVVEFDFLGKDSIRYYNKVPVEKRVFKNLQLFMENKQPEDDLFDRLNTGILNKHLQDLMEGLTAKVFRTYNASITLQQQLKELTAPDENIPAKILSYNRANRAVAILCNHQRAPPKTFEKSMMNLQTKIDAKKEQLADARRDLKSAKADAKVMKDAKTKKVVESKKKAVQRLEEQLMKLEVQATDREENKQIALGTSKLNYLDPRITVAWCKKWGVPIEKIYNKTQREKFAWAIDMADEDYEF

a variety of cell lines = conditions: versus SN38; cited from earlier work

Row | SMILES | Rt [1] | Aggregation [2] | Aggregation (% monomer) ([2]; 95% or greater = low aggregation) | potency relative to SN38 at stabilizing the topo I/DNA complex (topo I/DNA complex) | potency relative to SN38 as a cytotoxin (a variety of cell lines)
1 | CC[C@@]1(O)C(=O)OCc2c1cc1n(c2=O)Cc2c-1nc1cc(F)c(C)c3c1c2[C@@H](NC(=O)OCc1ccc(NC(=O)[C@H](C)NC(=O)[C@@H](NC(=O)CNC(=O)CNC(=O)CNC(=O)CNC(=O)CNC(=O)CCN2C(=O)C=CC2=O)C(C)C)cc1)CC3 [Mal-Gly5-VA-PABC-Exatecan] ({Propanoyl(3-maleimido)}-GGGGGVA[PABC]-Exatecan) | 9.76 min | None | 98% |  | 
2 | CC[C@@]1(O)C(=O)OCc2c1cc1n(c2=O)Cc2c-1nc1cc(F)c(C)c3c1c2[C@@H](N)CC3 [Exatecan] |  |  |  | about 2.5 fold | about 2.5 fold
